From patent US20090123543A1, “PHARMACEUTICAL COMPOSITIONS” (priority 2006, published 2009)

Test: Comparative physical (blend) properties of valsartan and valsartan granules
Format: physicochemical
Description: Valsartan was added to molten Lutrol F127 (at about 60-65° C.) under continuous mixing till a uniform semi-solid mixture was obtained. Weighed quantity of microcrystalline cellulose was added to the molten semi-solid mixture under continuous mixing. The blend was then allowed to cool to room temperature and the cooled mass was crushed and passed through 20# sieve.

With `CCCCC(=O)N(Cc1ccc(-c2ccccc2-c2nnn[nH]2)cc1)[C@H](C(=O)O)C(C)C` [Valsartan] the Bulk density (blend property) was 0.12 g/mL and the Flow (flow through funnel/orifice) was “as valsartan did not flow”.
